Test results as given in article PMC3834177 (Cancer Chemotherapy and Pharmacology, 2013).
Marks after values point to notes of the source that are not given here.

Columns and labels:
[1] = Midazolam PK when administered with midostaurin; settings: for change in AUCinf: day 3 (co-administration of midostaurin) vs day 1; for AUC0–inf, adjusted geometric mean / AUC0–last, adjusted geometric mean / C max, adjusted geometric mean / t max, median / AUC(0-inf) / AUC(0-t) / Cmax: n = 18; for AUC(0-inf): AUC0–inf; for AUC(0-inf) / AUC(0-t) / Cmax: adjusted geometric mean; for AUC(0-t): AUC0–last; for Cmax: C max
Source text: (§1) Both inhibition and induction of midazolam clearance were investigated.
Similarly, blood and urine samples were taken on days 1, 3, 6, 7, 8, and 9 to measure the levels of 4β-hydroxycholesterol in plasma and the 6β-hydroxycortisol/cortisol ratio in urine, markers of CYP3A4 activity.
The PK parameters of midazolam and its metabolites (C max, t max, AUC0–last, AUCinf, and t 1/2) were derived using a noncompartmental method with the aid of WinNonLin 5.2. […] Following log transformation, the primary PK parameters were analyzed using a linear, mixed-effects model using the term of treatment as a fixed factor (reference, test 1, test 2) and subject as a random factor. A point estimate and the corresponding 90 % CI for the difference in test 1 versus reference and the difference in test 2 versus reference were derived from the respective contrasts of the model estimates and anti-logged to obtain the GMR and respective 90 % CI.
The concentration of ketoconazole in plasma was assessed using a validated LC–MS/MS assay with an LLOQ of 50.0 ng/mL (WuXi Pharmatech Co, Ltd, China). The concentration of rifampicin in plasma was measured using a validated LC–MS/MS assay with an LLOQ of 5.0 ng/mL (SGS, Cephac Europe, SAS). Plasma concentrations of midazolam and its metabolite 1′-hydroxymidazolam, which is generated by CYP3A4 and CYP3A5 in humans, were measured using a validated LC–MS/MS assay with an LLOQ of ≈0.100 ng/mL (SGS, Cephac Europe, SAS). The plasma concentration of 4β-hydroxycholesterol was measured using a validated LC–MS/MS assay with an LLOQ of 3.0 ng/mL (SGS, Cephac Europe, SAS). The concentrations of 6β-hydroxycortisol and cortisol in urine were determined using validated LC–MS/MS assays with an LLOQ of 10.0 ng/mL for 6β-hydroxycortisol and 1.0 ng/mL for cortisol. The ratio of 6β-hydroxycortisol to cortisol was subsequently calculated (SGS, Cephac Europe, SAS). See Supplementary Table 2 for detailed bioanalytical methods for all 3 studies.

[2] = Safety and tolerability, midazolam study
Source text: as §1

[3] = day 3 (co-administration of midostaurin) vs midazolam alone day 1
[4] = day 8 (after repeated doses of midostaurin) vs day 1
[5] = plasma, Midazolam + midostaurin (day 3)
[6] = midazolam study: MZ 4 mg (day 1), MZ 4 mg + Mido 100 mg (day 3), Mido 50 mg twice daily (days 4–6)
[7] = midazolam study: second MZ 4 mg alone (day 8, after Mido)
[8] = human, plasma, oral, 4 mg, plasma, Midazolam (day 1)
[9] = human, plasma, oral, 4 mg, plasma, Midazolam (day 8)
[10] = human, plasma, oral, plasma, Midazolam + midostaurin (day 3)

OCc1ncc2n1-c1ccc(Cl)cc1C(c1ccccc1F)=NC2 [1′-Hydroxymidazolam]
change in AUCinf [1]: No change
average decrease in C max [1, 3]: 1.2 fold
t max, Hodges–Lehmann estimate of median difference (90 % distribution-free CI) ([1]; day 3/day 1 comparison): 0.13 (−0.50 to 1.50)^b h
average decrease in AUCinf [1, 4]: 1.3 fold
average decrease in C max [1, 4]: 1.3 fold
t max, Hodges–Lehmann estimate of median difference (90 % distribution-free CI) ([1]; day 8/day 1 comparison): 0.01 (−0.23 to 0.26)^c h
AUC0–inf, adjusted geometric mean ([1]; plasma, Midazolam (day 1), midazolam 4 mg alone): 18.18 ng·h/mL
AUC0–last, adjusted geometric mean ([1]; plasma, Midazolam (day 1)): 15.91 ng·h/mL
C max, adjusted geometric mean ([1]; plasma, Midazolam (day 1)): 5.83 ng/mL
t max, median ([1]; plasma, Midazolam (day 1)): 30 min
AUC0–inf, adjusted geometric mean ([1]; plasma, Midazolam (day 8), midazolam 4 mg alone after repeated midostaurin): 13.74 ng·h/mL
AUC0–last, adjusted geometric mean ([1]; plasma, Midazolam (day 8)): 12.57 ng·h/mL
C max, adjusted geometric mean ([1]; plasma, Midazolam (day 8)): 4.37 ng/mL
t max, median ([1]; plasma, Midazolam (day 8)): 30 min
AUC0–inf, adjusted geometric mean ([1]; plasma, Midazolam + midostaurin (day 3), midazolam 4 mg + midostaurin 100 mg): 18.54 ng·h/mL
AUC0–last, adjusted geometric mean [1, 5]: 15.87 ng·h/mL
C max, adjusted geometric mean [1, 5]: 4.76 ng/mL

Cc1ncc2n1-c1ccc(Cl)cc1C(c1ccccc1F)=NC2 [Midazolam]
Adverse event: Abdominal distension [2, 6]: 0 n (%)
Adverse event: Any preferred term [2, 6]: 3 (15.0) n (%)
Adverse event: Back pain [2, 6]: 0 n (%)
Adverse event: Chromaturia [2, 6]: 0 n (%)
Adverse event: Cough [2, 6]: 0 n (%)
Adverse event: Diarrhea [2, 6]: 0 n (%)
Adverse event: Discolored feces [2, 6]: 0 n (%)
Adverse event: Dizziness [2, 6]: 0 n (%)
Adverse event: Dry skin [2, 6]: 0 n (%)
Adverse event: Dyspepsia [2, 6]: 0 n (%)
Adverse event: Feeling cold [2, 6]: 0 n (%)
Adverse event: Feeling hot [2, 6]: 0 n (%)
Adverse event: Flatulence [2, 6]: 0 n (%)
Adverse event: Headache [2, 6]: 2 (10.0) n (%)
Adverse event: Hot flush [2, 6]: 0 n (%)
Adverse event: Nasopharyngitis [2, 6]: 0 n (%)
Adverse event: Nausea [2, 6]: 0 n (%)
Adverse event: Palpitations [2, 6]: 0 n (%)
Adverse event: Pharyngolaryngeal pain [2, 6]: 0 n (%)
Adverse event: Restlessness [2, 6]: 0 n (%)
Adverse event: Rhinitis [2, 6]: 0 n (%)
Adverse event: Sleep disorder [2, 6]: 0 n (%)
Adverse event: Somnolence [2, 6]: 1 (5.0) n (%)
Adverse event: Vomiting [2, 6]: 0 n (%)
Adverse event: Abdominal distension [2, 7]: 0 n (%)
Adverse event: Any preferred term [2, 7]: 3 (16.7) n (%)
Adverse event: Back pain [2, 7]: 0 n (%)
Adverse event: Chromaturia [2, 7]: 0 n (%)
Adverse event: Cough [2, 7]: 0 n (%)
Adverse event: Diarrhea [2, 7]: 0 n (%)
Adverse event: Discolored feces [2, 7]: 0 n (%)
Adverse event: Dizziness [2, 7]: 0 n (%)
Adverse event: Dry skin [2, 7]: 0 n (%)
Adverse event: Dyspepsia [2, 7]: 0 n (%)
Adverse event: Feeling cold [2, 7]: 0 n (%)
Adverse event: Feeling hot [2, 7]: 0 n (%)
Adverse event: Flatulence [2, 7]: 0 n (%)
Adverse event: Headache [2, 7]: 2 (11.1) n (%)
Adverse event: Hot flush [2, 7]: 0 n (%)
Adverse event: Nasopharyngitis [2, 7]: 1 (5.6) n (%)
Adverse event: Nausea [2, 7]: 0 n (%)
Adverse event: Palpitations [2, 7]: 0 n (%)
Adverse event: Pharyngolaryngeal pain [2, 7]: 0 n (%)
Adverse event: Restlessness [2, 7]: 0 n (%)
Adverse event: Rhinitis [2, 7]: 0 n (%)
Adverse event: Sleep disorder [2, 7]: 0 n (%)
Adverse event: Somnolence [2, 7]: 0 n (%)
Adverse event: Vomiting [2, 7]: 0 n (%)
change in AUCinf [1]: No change
average decrease in C max [1, 3]: 1.2 fold
average decrease in AUCinf [1, 4]: 1.1 fold
average decrease in C max [1, 4]: 1.1 fold
t max, Hodges–Lehmann estimate of median difference (90 % distribution-free CI) ([1]; day 8/day 1 comparison): 0.12 (−0.12 to 0.26)^c h
Tmax ([1]; human, plasma, oral, 4 mg): 30 min
AUC(0-inf) ([1]; human, plasma, oral, 4 mg, plasma, Midazolam (day 1), midazolam 4 mg alone): 49.7 ng·h/mL
AUC(0-inf) ([1]; human, plasma, oral, 4 mg, plasma, Midazolam (day 8), midazolam 4 mg alone after repeated midostaurin): 47 ng·h/mL
AUC(0-t) [1, 8]: 43.1 ng·h/mL
AUC(0-t) [1, 9]: 40.8 ng·h/mL
Cmax [1, 8]: 13.5 ng/mL
Cmax [1, 9]: 12.2 ng/mL
AUC(0-inf) ([1]; human, plasma, oral, plasma, Midazolam + midostaurin (day 3), midazolam 4 mg + midostaurin 100 mg): 49.6 ng·h/mL
AUC(0-t) [1, 10]: 40.2 ng·h/mL
Cmax [1, 10]: 11 ng/mL
t max, median ([1]; plasma, Midazolam (day 8)): 30 min
